Results published in US7531540B2, “Phthalazinone-piperidino-derivatives as PDE4 inhibitors” (Nycomed GmbH, priority 2001, dated 2009).
Where a name gives a salt, the structure may show the parent alone.

Tests used:
PDE4 = assay: Inhibition of PDE4 activity ([3H]cAMP hydrolysis, cytosol from human neutrophils); assay type: biochemical; details: 0.5 μM cAMP, Motapizone (1 μM) included to suppress PDE3 activity, 15 min at 37° C.
Protocol: Method for Measuring Inhibition of PDE4 Activity
PDE4 activity was determined as described by Thompson et al. (Adv Cycl Nucl Res 10: 69-92, 1979) with some modifications (Bauer and Schwabe, Naunyn-Schmiedeberg's Arch Pharmacol 311: 193-198, 1980). At a final assay volume of 200 μl (96 well microtiter plates) the assay mixture contained 20 mM Tris (pH 7.4), 5 mM MgCl2, 0.5 μM cAMP, [^3H]cAMP (about 30,000 cpm/assay), the test compound and an aliquot of cytosol from human neutrophils which mainly contains PDE4 activity as described by Schudt et al. (Naunyn-Schmiedeberg's Arch Pharmacol 344: 682-690, 1991); the PDE3-specific inhibitor Motapizone (1 μM) was included to suppress PDE3 activity originating from contaminating platelets. Serial dilutions of the compounds were prepared in DMSO and further diluted 1:100 (v/v) in the assays to obtain the desired final concentrations of the inhibitors at a DMSO concentration of 1% (v/v) which by itself only slightly affected PDE4 activity.
After preincubation for 5 min at 37° C., the reaction was started by the addition of substrate (cAMP) and the assays were incubated for further 15 min at 37° C. 50 μl of 0.2 N HCl was added to stop the reaction and the assays were left on ice for about 10 min. Following incubation with 25 μg 5′-nucleotidase (Crotalus atrox snake venom) for 10 min at 37° C., the assays were loaded on QAE Sephadex A-25 (1 ml bed volume). The columns were eluted with 2 ml of 30 mM ammonium formiate (pH 6.0) and the eluate was counted for radioactivity. Results were corrected for blank values (measured in the presence of denatured protein) which were below 5% of total radioactivity. […] The IC50 -values for the compounds according to the invention for the inhibition of the PDE4 activity were determined from the concentration-inhibition curves by nonlinear-regression.
The inhibitory values determined for the compounds according to the invention follow from the following table A, in which the numbers of the compounds correspond to the numbers of the examples.

Row | Structure (SMILES) | melting point [°C] | Inhibition of PDE4 acitivity [measured as -logIC50 (mol/l)] (PDE4)
1 | CCOc1ccc(C2=NN(C3CCN(C(=O)NC(C)(C)C)CC3)C(=O)[C@@H]3CC=CC[C@H]23)cc1OCC [compound 6, 4-[(4aS,8aR)-4-(3,4-Diethoxyphenyl)-1-oxo-4a,5,8,8a-tetrahydro-1H-phthalazin-2-yl]-piperidine-1-carboxylic acid tert-butylamide] | 145 to 148 | –
2 | COc1ccc(C2=NN(C3CCN(c4ncnc5sccc45)CC3)C(=O)[C@@H]3CC=CC[C@H]23)cc1OC [compound 16, (4aS,8aR)-4-(3,4-Dimethoxyphenyl)-2-(1-thieno[2,3-d]pyrimidin-4-yl-piperidin-4-yl)-4a,5,8,8a-tetrahydro-2H-phthalazin-1-one] | 219 to 220 | 10.50
3 | CCOc1ccc(C2=NN(C3CCN(C(=O)Nc4ccccc4)CC3)C(=O)[C@@H]3CC=CC[C@H]23)cc1OCC [compound 7, 4-[(4aS,8aR)-4-(3,4-Diethoxyphenyl)-1-oxo-4a,5,8,8a-tetrahydro-1H-phthalazin-2-yl]-piperidine-1-carboxylic acid phenylamide] | – | 10.28
4 | COc1ccc(C2=NN(C3CCN(CC(N)=O)CC3)C(=O)C3CC=CCC23)cc1OC [compound 31, 2-{4-[(4aS,8aR)-4-(3,4-Dimethoxyphenyl)-1-oxo-4a,5,8,8a-tetrahydro-1H-phthalazin-2-yl]-piperidin-1-yl}-2H-acetamide hydrochloride] | – | 9.20
5 | CCOc1ccc(C2=NN(C3CCN(S(=O)(=O)c4ccc(C)cc4)CC3)C(=O)[C@@H]3CC=CC[C@H]23)cc1OCC [compound 1, (4aS,8aR)-4-(3,4-Diethoxyphenyl)-2-[1-(toluene-4-sulfonyl)-piperidin-4-yl]-4a,5,8,8a-tetrahydro-2H-phthalazin-1-one] | 99 to 101 | –
6 | COc1ccc(C2=NN(C3CCN(c4ccc([N+](=O)[O-])cc4)CC3)C(=O)[C@@H]3CC=CC[C@H]23)cc1OC [compound 11, (4aS,8aR)-4-(3,4-Dimethoxyphenyl)-2-[1-(4-nitro-phenyl)-piperidin-4-yl]-4a,5,8,8a-tetrahydro-2H-phthalazin-1-one] | 196 to 197 | 10.34
7 | COc1ccc(C2=NN(C3CCN(C(=O)NC(C)(C)C)CC3)C(=O)[C@H]3CC=CC[C@@H]23)c2c1OC(C)(C)C2 (relative stereo) [compound 9, (cis)-4-[4-(7-Methoxy-2,2-dimethyl-2,3-dihydro-benzofuran-4-yl)-1-oxo-4a,5,8,8a-tetrahydro-1H-phthalazin-2-yl]-piperidine-1-carboxylic acid tert-butylamide] | – | 10.65
8 | CCOc1ccc(C2=NN(C3CCN(C(=O)c4ccncc4)CC3)C(=O)[C@@H]3CC=CC[C@H]23)cc1OCC.Cl | 66 to 68 | –
9 | COc1ccc(C2=NN(C3CCN(C(=O)NC(C)(C)C)CC3)C(=O)[C@@H]3CC=CC[C@H]23)cc1OC [compound 8, 4-[(4aS,8aR)-4-(3,4-Dimethoxyphenyl)-1-oxo-4a,5,8,8a-tetrahydro-1H-phthalazin-2-yl]-piperidine-1-carboxylic acid tert-butylamide] | – | 10.18
10 | COc1ccc(C2=NN(C3CCN(S(=O)(=O)c4cccc5c(N(C)C)cccc45)CC3)C(=O)[C@@H]3CC=CC[C@H]23)cc1OC [compound 10, (4aS,8aR)-4-(3,4-Dimethoxyphenyl)-2-[1-(5-dimethylamino-naphthalene-1-sulfonyl)-piperidin-4-yl]-4a,5,8,8a-tetrahydro-2H-phthalazin-1-one] | – | 9.57
11 | COc1ccc(C2=NN(C3CCN(CC(=O)NC(C)C)CC3)C(=O)C3CC=CCC23)cc1OC [compound 27, 2-{4-[(4aS,8aR)-4-(3,4-Dimethoxyphenyl)-1-oxo-4a,5,8,8a-tetrahydro-1H-phthalazin-2-yl]-piperidin-1-yl}-2H-isopropyl-acetamide] | – | 10.37
12 | COc1ccc(C2=NN(C3CCN(c4ncccn4)CC3)C(=O)[C@@H]3CC=CC[C@H]23)cc1OC [compound 17, (4aS,8aR)-4-(3,4-Dimethoxyphenyl)-2-(1-pyrimidin-2-yl-piperidin-4-yl)-4a,5,8,8a-tetrahydro-2H-phthalazin-1-one] | – | 10.51
13 | CCOc1ccc(C2=NN(C3CCN(C(=O)CCCC(=O)O)CC3)C(=O)[C@@H]3CC=CC[C@H]23)cc1OCC [compound 4, 5-{4-[(4aS,8aR)-4-(3,4-Diethoxy-phenyl)-1-oxo-4a,5,8,8a-tetrahydro-1H-phthalazin-2-yl]-piperidin-1-yl}-5-oxo-pentanoic acid] | 133 to 135 | –
14 | COc1ccc(C2=NN(C3CCN(Cc4cccnc4)CC3)C(=O)[C@@H]3CC=CC[C@H]23)cc1OC.Cl.Cl [compound 23, (4aS,8aR)-4-(3,4-Dimethoxyphenyl)-2-(1-pyridin-3-ylmethyl-piperidin-4-yl)-4a,5,8,8a-tetrahydro-2H-phthalazin-1-one dihydrochloride] | – | 10.80
15 | COc1ccc(C2=NN(C3CCN(Cc4ccc(-c5csnn5)cc4)CC3)C(=O)[C@@H]3CC=CC[C@H]23)cc1OC.Cl.Cl [compound 28, (4aS,8aR)-4-(3,4-Dimethoxyphenyl)-2-[1-(4-1,2,3-thiadiazol-4-yl-benzyl)-piperidin-4-yl]-4a,5,8,8a-tetrahydro-2H-phthalazin-1-one dihydrochloride] | – | 10.24
16 | COc1ccc(C2=NN(C3CCN(CCc4ccccc4)CC3)C(=O)[C@@H]3CC=CC[C@H]23)cc1OC.Cl [compound 21, (4aS,8aR)-4-(3,4-Dimethoxyphenyl)-2-(1-phenethyl-piperidin-4-yl)-4a,5,8,8a-tetrahydro-2H-phthalazin-1-one hydrochloride] | – | 9.69
17 | CCOc1ccc(C2=NN(C3CCN(C(=O)CN4CCOCC4)CC3)C(=O)[C@@H]3CC=CC[C@H]23)cc1OCC.Cl [compound 25, (4aS,8aR)-4-(3,4-Diethoxyphenyl)-2-[1-(2-morpholin-4-yl-ethanoyl)-piperidin-4yl]-4a,5,8,8a-tetrahydro-2H-phthalazin-1-one hydrochloride] | – | 10.19
18 | CCN1CCN(C(=O)N2CCC(N3N=C(c4ccc(OC)c(OC)c4)[C@H]4CC=CC[C@H]4C3=O)CC2)C(=O)C1=O [compound 29, 1-(1-{4-[(4aS,8aR)-4-(3,4-Dimethoxyphenyl)-1-oxo-4a,5,8,8a-tetrahydro-1H-phthalazin-2-yl]-piperidin-1-yl}-methanoyl)-4-ethyl-piperazine-2,3-dione] | – | 10.87
19 | COc1ccc(C2=NN(C3CCN(CC(=O)N4CCOCC4)CC3)C(=O)[C@@H]3CC=CC[C@H]23)cc1OC.Cl [compound 20, (4aS,8aR)-4-(3,4-Dimethoxyphenyl)-2-[1-(2-morpholin-4-yl-2-oxo-ethyl)-piperidin-4-yl]-4a,5,8,8a-tetrahydro-2H-phthalazin-1-one hydrochloride] | – | 10.40
20 | CCOc1ccc(C2=NN(C3CCN(C(=O)N4CCOCC4)CC3)C(=O)[C@@H]3CC=CC[C@H]23)cc1OCC [compound 22, (4aS,8aR)-4-(3,4-Diethoxyphenyl)-2-[1-(morpholine-4-carbonyl)-piperidin-4-yl]-4a,5,8,8a-tetrahydro-2H-phthalazin-1-one] | – | 9.37
